Measurements: a melting point compilation (Tetko et al.; mined from patent text by program, amines drawn as free bases though some values may be those of a salt)

| Compound | melting point [°C] |
| --- | --- |
| O=C(c1ccc(Cl)cc1)N(c1ccccc1)c1ccc(OCc2ccccc2)cc1 | 132 to 136 |
| COCCO[C@@H]1c2ccn3c(Cl)c(C)nc3c2N(C(C)=O)[C@H](c2ccccc2)[C@H]1OC(=O)C(C)(C)C | 145 to 147 |
| Cc1nn(C)c2nc(-c3ccccc3)cc(O)c12 | 262 to 264 |
| CCOn1c(C(F)(F)F)nc2c([N+](=O)[O-])cc(C(F)(F)F)cc21 | 94 to 96 |
| O=C(O)c1cc(-c2ccc(Br)cc2)nc(-c2ccc(Br)cc2)c1 | 292 to 294 |
| Cc1ncc([N+](=O)[O-])cc1C(=O)NC(=O)C(C)(C)C | 138 to 139 |
| Cc1nc(N)c2nc(C)n(NC3CCOCC3)c2c1C | 240 to 242 |
| N#CN=C(Nc1cccnc1)NC(NC(=O)c1ccccc1)C(Cl)(Cl)Cl (stereo unspecified) | 133 to 135 |
| NC(=O)c1c[nH]c2cccc(OCc3ccccc3)c12 | 176 |
| CC(Cc1nc(-c2ccccc2)cc2ccccc12)C(=O)O (stereo unspecified) | 184 |
| CC(=O)c1nc2ccc(Oc3ccccc3)cc2cc1O | 131 to 133 |
| CCOC(=O)CC[C@H](NC(=O)OCc1ccccc1)C(=O)O | 82 to 84 |
| Cc1ccc(C(=S)c2ccc(Cl)cc2)cc1 | 134 |
| Oc1ccc(-c2noc(C3(CSc4ccccc4)CC3)c2-c2ccccc2)cc1 | 180 to 181 |
| CC(C)(C)Cc1c(CC(C)(C)C(=O)O)n(Cc2ccc(Cl)cc2)c2ccc(OCc3ccc4scc(Cl)c4n3)cc12 | 185 to 186 |
| OC1(Cn2cncn2)C(Cc2ccc(F)cc2)CCC12CC2 (stereo unspecified) | 89 to 90 |
| O=S(=O)(NCCCn1cncn1)c1ccc(Cl)cc1 | 77 to 79 |
| Nc1cc(C(c2c(F)ccc(F)c2F)S(=O)(=O)CCC(F)(F)F)c(Cl)cn1 (stereo unspecified) | 155 to 159 |
| O=[N+]([O-])c1ccc2c(c1)S(=O)(=O)c1cc(F)ccc1-2 | 275 to 279 |
| CCOC(=O)N1CCC(=C2c3ccc(Cl)cc3CCn3ccnc32)CC1 | 140 |
| Cc1cc(Br)cnc1CCCCNc1ncc(Cc2ccn(Cc3ccccc3)c(=O)c2)c(=O)[nH]1 | 140 to 144 |
| Cc1c(O)nc2ccccc2c1C(=O)O | > 300 |
| COc1cc2[nH]c(=O)nc(C)c2c(C)c1OC | 78 to 81 |
| COC(=O)c1cc(Cl)c(Oc2ccc(OC)c(Cc3ccc(F)cc3)c2)c(Cl)c1 | 108 to 110 |
| Cc1ccc(S(=O)(=O)OCC2CNC(=O)O2)cc1 (stereo unspecified) | 96 to 99 |
| O=c1[nH][nH]c(=O)c2c(O)c3ccc(F)cc3nc12 | 228 |

| Compound | melting point [°C] |
| --- | --- |
| N#Cc1c(N)oc2ccccc2c1=O | 315 to 320 |
| COc1ccc(C=O)c2cc(C#N)oc12 | 170 to 178 |
| CCCCNC(=O)NCCCCCCCCCCCCN | 97 |
| CCc1[nH]n(C2CCCC2)c2nc(-n3ccnc3)nc(=O)c1-2 | 228 to 230 |
| CCOC(=O)C1=C(O)C(=O)NCC1 | 142 to 148 |
| COC(=O)N[C@@H](CSc1ccccc1)[C@H](O)CCl | 113 to 114 |
| O=c1cc(-c2ccccc2)oc2cc(OCCCCCCN3CCCCC3)cc(O)c12 | 103 |
| COCc1nc2c(NCc3c(C)cccc3C)cc(C(=O)NCCO)cc2n1C | 186 to 187 |
| CCOC(=O)c1cc(NCc2c(C)cccc2C)c2nc(C)n(COCc3ccccc3)c2c1 | 155 to 156 |
| COc1cc2c(cc1OC(C)C)-c1c(-c3cccs3)c3c(n1CC2)C(=O)N(C(C)C)CCNC3 | 242 to 243 |
| Cc1ccc(CN2C(=NCCCn3ccnc3)c3cccc4cccc2c34)cc1 | 94 to 95 |
| Clc1ccccc1C(Cl)c1ccc(-c2ccccc2)cc1 (stereo unspecified) | 80 |
| OC[C@H](O)COc1ccccc1OCC1CC1 | 95 to 97 |
| CC(=O)N[C@@H](C(=O)Oc1ccccc1)C(C)(C)SN=O | 120 |
| CC(=O)Nc1ccc(N2CCC(=O)CC2)cc1 | 158 to 159 |
| NC1=NCc2c[nH]c3cccc1c23 | 233 to 235 |
| O=C(C=Cc1ccc(O)c(O)c1)OCCc1ccccc1 | 126 to 128 |
| C=CCC(C#N)(C#N)Cc1ccc([N+](=O)[O-])cc1 | 94.2 |
| COc1ccc(C2CCN(C(=O)/C(=N/O)C(N)=O)CC2)cc1OC1CCCC1 | 109 to 111 |
| CC(C)Oc1cc(-n2c(=O)c(F)c(C(F)(F)C(F)(F)F)n(C)c2=O)c(F)cc1Cl | 107 to 109 |
| O=C=Nc1ccc(N2CCOCC2)cc1 | 221 to 225 |
| CC(C)(C)c1cc(SCCc2nncs2)cc(C(C)(C)C)c1O | 118 to 120 |
| CCC(C1=C(C)C(=O)C(C)=C(C)C1=O)c1ccc(C(C)C)cc1 (stereo unspecified) | 61 to 63 |
| O=C(CCCCN1CCOCC1)c1ccc2c(c1)Cc1cc(C(=O)CCCCN3CCOCC3)ccc1-2 | 134 to 136 |
| N#CCCNC(=O)C1=CC(CF)(CF)Oc2ccc(C(F)(F)C(F)(F)F)cc21 | 144 to 145 |
